Experimental data: US20230226040A1, “COMBINATION THERAPY COMPRISING AN FGFR INHIBITOR AND A KRAS INHIBITOR” (Incyte Corporation, priority 2021, published 2023)
Several values for one entry are separate records, joined by “and”; a condition that tells them apart may be missing. Equal values may be shown once.

Tests used:
SW-837 = assay: 5-day Cell Titer Glo combination matrix, Bliss score; type: cell-based; conditions: SW837 (CRC, Epithelial); FGFR inhibitor in combination with MRTX849; 5 days
Description: (§1) Cells were seeded in RPMI medium with 10% HI FBS at a density of 500 cells/well in Greiner, white, clear bottom, 384-well tissue culture treated plates containing 10×10 combination matrices of compound. Plates were incubated at 37° C., 5% CO2 for 5 days. On day 5, Cell Titer Glo reagent was added to the plates and ATP luminescence was detected using a Pherastar FSX reader. The synergy score for the combination effect was calculated using a Bliss score model where the Bliss score=Yab-(Ya+Yb−(YaYb))×100, where Ya and Yb are the monotherapies. Bliss scores >20 are strongly synergistic and a higher Bliss scores indicates a higher level of synergism.
(§2) Cells were seeded in RPMI medium with 10% HI FBS at a density of 500 cells/well in Greiner, white, clear bottom, 384-well tissue culture treated plates containing 10×10 combination matrices of compound. Plates were incubated at 37° C., 5% CO2 for 5 days. On day 5, Cell Titer Glo reagent was added to the plates and ATP luminescence was detected using a Pherastar FSX reader. The synergy score for the combination effect was calculated using a Bliss score model where the Bliss score=Yab−(Ya+Yb−(YaYb))×100, where Ya and Yb are the monotherapies. Bliss scores >20 are strongly synergistic and a higher Bliss scores indicates a higher level of synergism.

pFRS2a = assay: Western blot of pFRS2a in LU99 cell lysate (90 hours treatment); type: cell-based; conditions: LU99 cells
Description: FGFR1 and downstream activation marker pFRS2a protein levels were examined in indicated cell lines, as well as markers for epithelial-like cells (E-cadherin) and mesenchymal-like cells (Vimentin).

H358 = assay: 5-day Cell Titer Glo combination matrix, Bliss score; type: cell-based; conditions: H358 (Lung, Epithelial), 5 days
Description: as §1
(§3) Cells were seeded in RPMI medium with 10% HI FBS at a density of 500 cells/well in Greiner, white, clear bottom, 384-well tissue culture treated plates containing 10×10 combination matrices of compound. Plates were incubated at 37° C., 5% CO2 for 5 days. On day 5, Cell Titer Glo reagent was added to the plates and ATP luminescence was detected using a Pherastar FSX reader. Synergy score for the combination effect is calculated using a Bliss score model where the Bliss score=Yab−(Ya+Yb−(YaYb))×100, where Ya and Yb are the monotherapies. Bliss scores >20 are strongly synergistic and a higher Bliss scores indicates a higher level of synergism.
as §2

H2122 = assay: as above; type: cell-based; conditions: H2122 (Lung, Epithelial); FGFR inhibitor in combination with MRTX849; 5 days
Description: as §2

[1] = system: LU99 lung cancer xenograft; assay: LU99 xenograft model, tumor growth inhibition; type: in vivo; conditions: NCr nude mice; AMG510 20 mg/kg, pemigatinib 0.3 mg/kg, alone or combined; oral QD, 30 days; last day of treatment
Description: The in vivo effect of combining the FGFR1 inhibitor pemigatinib plus the KRAS G12C inhibitor AMG510 was assessed in the LU99 lung cancer model (JCRB0080, JCRB) xenograft model (FIG. 3) in 6 to 8 week old female NCr nude mice (Taconic). Pemigatinib and AMG510 were suspended in 5% N,N-dimethyl acetamide (DMAC)+50 mM Citrate buffer (pH 3.0) in 0.5% methyl cellulose for oral administration. Briefly, mice were inoculated in the left flank with 1×10^7 LU99 cells re-suspended in a PBS and matrigel (Corning Life Sciences, Tewksbury, Mass) solution at 1:1. On Day 7, mice were randomized into 4 groups of 10 mice at approximate mean volume (˜212 mm^3). […] Tumor growth inhibition was calculated using the formula (1−(VT/VC))×100, where VT is the tumor volume of the treatment group on the last day of treatment, and Vc is the tumor volume of the control group on the last day of treatment. […] Statistics were determined using One-Way ANOVA.
Briefly, mice were inoculated in the left flank with 1×10^7LU99 cells re-suspended in a PBS and matrigel (Corning Life Sciences, Tewksbury, Mass) solution at 1:1. […] TGI was calculated using the formula (1−(VT/VC))×100, where VT is the tumor volume of the treatment group on the last day of treatment, and VC is the tumor volume of the control group on the last day of treatment. […]

HCC-44 = assay: 5-day Cell Titer Glo combination matrix, Bliss score; type: cell-based; conditions: HCC44 (Lung, Mesenchymal); FGFR inhibitor in combination with MRTX849; 5 days
Description: as §1, §2

[2] = system: MiaPaca2 KRAS G12C resistant clone 7; assay: 5-day Cell Titer Glo viability and Bliss score; type: cell-based; conditions: 5-day CTG; for % viability, Pemi 1 μM: Pemi alone
Description: For G12C resistant clone generation, MiaPaca2 parent cells were cultured with increasing concentrations of AMG510 (up to 1μM) over time. The viable cells were re-fed fresh media containing AMG510 weekly. Once the AMG510 resistant cells were growing at normal rates in the presence of 1μM AMG510, they were cloned by limiting dilution. Eight clones were selected for continued passage and further experiments.

H1792 = assay: 5-day Cell Titer Glo combination matrix, Bliss score; type: cell-based; conditions: H1792 (Lung, Mesenchymal), 5 days
Description: as §1, §3, §2

MiaPaca2 cells = assay: 5-day Cell Titer Glo viability and Bliss score
Description: For synergy experiments, cells were seeded in RPMI medium with 10% HI FBS at a density of 500 cells/well in Greiner, white, clear bottom, 384-well tissue culture treated plates containing 10x10 combination matrices of compound. Plates were incubated at 37° C., 5% CO2 for 5 days. On day 5, Cell Titer Glo reagent was added to the plates and ATP luminescence was detected using a Pherastar FSX reader. The synergy score for the combination effect was calculated using a Bliss score model where the Bliss score=Yab−(Ya+Yb−(YaYb))×100, where Ya and Yb are the monotherapies. Bliss scores >20 are strongly synergistic and a higher Bliss scores indicates a higher level of synergism.

LU-99 = assay: 5-day Cell Titer Glo combination matrix, Bliss score; type: cell-based; conditions: 5 days
Description: as §3, §2

SW-1573 = assay: as above; type: cell-based; conditions: 5 days
Description: as §1, §3, §2

[3] = FGFR inhibitor in combination with Cmpd 3
[4] = FGFR inhibitor in combination with MRTX849
[5] = Average, G12C i 111 nM + Pemi 1 μM

CCN1C(=O)N(c2c(F)c(OC)cc(OC)c2F)Cc2cnc3[nH]c(CN4CCOCC4)cc3c21 [Pemigatinib, 3-(2,6-difluoro-3,5-dimethoxyphenyl)-1-ethyl-8-(morpholin-4-ylmethyl)-1,3,4,7-tetrahydro-2H-pyrrolo[3′,2′:5,6]pyrido[4,3-d]pyrimidin-2-one]
Avg. Bliss Score (SW-837): 6.1
pFRS2a level, FGFR inhibitor in combination with KRAS inhibitor MRTX849 (pFRS2a; 50 nM MRTX849, pemigatinib 0.5 μM): inhibited the pFRS2a level
pFRS2a level, FGFR inhibitor in combination with KRAS inhibitors (pFRS2a; with 50 nM AMG510 or Compound 2): inhibited the pFRS2a level
Avg. Bliss Score (H358; [3]): 1.4
Avg. Bliss Score (H358; [4]): 3.7
Avg. Bliss Score (H2122): 4.5
TGI (tumor growth inhibition) [1]: 63%
Avg. Bliss Score (HCC-44): 11.6
% viability, Together [2, 5]: 54.6%
BLISS Score [2, 5]: 15.0
% viability, Pemi 1 μM ([2]; Average): 101.1%
% viability, Together ([2]; G12C i 111 nM + Pemi 1 μM, single experiments): 63% and 53% and 47.7%
% viability, Pemi 1 μM ([2]; single experiments): 104% and 106% and 93.4%
Avg. Bliss Score (H1792; [3]): 24.2
Avg. Bliss Score (H1792; [4]): 19.9
BLISS Score (MiaPaca2 cells; MIA PaCa2, Pemi 12 nM + KRAS G12C i 0.15 nM, 5 day CTG): −16.39
BLISS Score (MiaPaca2 cells; MIA PaCa2, Pemi 12 nM + KRAS G12C i 0.46 nM, 5 day CTG): −9.92
BLISS Score (MiaPaca2 cells; MIA PaCa2, Pemi 12 nM + KRAS G12C i 1.37 nM, 5 day CTG): −4.50
BLISS Score (MiaPaca2 cells; MIA PaCa2, Pemi 12 nM + KRAS G12C i 4.12 nM, 5 day CTG): −1.78
BLISS Score (MiaPaca2 cells; MIA PaCa2, Pemi 12 nM + KRAS G12C i 12.35 nM, 5 day CTG): −1.91
BLISS Score (MiaPaca2 cells; MIA PaCa2, Pemi 12 nM + KRAS G12C i 37.04 nM, 5 day CTG): 1.33
BLISS Score (MiaPaca2 cells; MIA PaCa2, Pemi 12 nM + KRAS G12C i 111.11 nM, 5 day CTG): 0.06
BLISS Score (MiaPaca2 cells; MIA PaCa2, Pemi 12 nM + KRAS G12C i 333.33 nM, 5 day CTG): 0.73
BLISS Score (MiaPaca2 cells; MIA PaCa2, Pemi 12 nM + KRAS G12C i 1000.00 nM, 5 day CTG): 0.29
BLISS Score (MiaPaca2 cells; MIA PaCa2, Pemi 37 nM + KRAS G12C i 0.15 nM, 5 day CTG): −13.53
BLISS Score (MiaPaca2 cells; MIA PaCa2, Pemi 37 nM + KRAS G12C i 0.46 nM, 5 day CTG): −5.08
BLISS Score (MiaPaca2 cells; MIA PaCa2, Pemi 37 nM + KRAS G12C i 1.37 nM, 5 day CTG): 6.72
BLISS Score (MiaPaca2 cells; MIA PaCa2, Pemi 37 nM + KRAS G12C i 4.12 nM, 5 day CTG): 4.25
BLISS Score (MiaPaca2 cells; MIA PaCa2, Pemi 37 nM + KRAS G12C i 12.35 nM, 5 day CTG): 3.06
BLISS Score (MiaPaca2 cells; MIA PaCa2, Pemi 37 nM + KRAS G12C i 37.04 nM, 5 day CTG): 5.01
BLISS Score (MiaPaca2 cells; MIA PaCa2, Pemi 37 nM + KRAS G12C i 111.11 nM, 5 day CTG): 3.10
BLISS Score (MiaPaca2 cells; MIA PaCa2, Pemi 37 nM + KRAS G12C i 333.33 nM, 5 day CTG): 2.88
BLISS Score (MiaPaca2 cells; MIA PaCa2, Pemi 37 nM + KRAS G12C i 1000.00 nM, 5 day CTG): 2.69
BLISS Score (MiaPaca2 cells; MIA PaCa2, Pemi 111 nM + KRAS G12C i 0.15 nM, 5 day CTG): −10.62
BLISS Score (MiaPaca2 cells; MIA PaCa2, Pemi 111 nM + KRAS G12C i 0.46 nM, 5 day CTG): −7.15
BLISS Score (MiaPaca2 cells; MIA PaCa2, Pemi 111 nM + KRAS G12C i 1.37 nM, 5 day CTG): 9.38
BLISS Score (MiaPaca2 cells; MIA PaCa2, Pemi 111 nM + KRAS G12C i 4.12 nM, 5 day CTG): 4.70
BLISS Score (MiaPaca2 cells; MIA PaCa2, Pemi 111 nM + KRAS G12C i 12.35 nM, 5 day CTG): 4.83
BLISS Score (MiaPaca2 cells; MIA PaCa2, Pemi 111 nM + KRAS G12C i 37.04 nM, 5 day CTG): 6.56
BLISS Score (MiaPaca2 cells; MIA PaCa2, Pemi 111 nM + KRAS G12C i 111.11 nM, 5 day CTG): 4.31
BLISS Score (MiaPaca2 cells; MIA PaCa2, Pemi 111 nM + KRAS G12C i 333.33 nM, 5 day CTG): 3.66
BLISS Score (MiaPaca2 cells; MIA PaCa2, Pemi 111 nM + KRAS G12C i 1000.00 nM, 5 day CTG): 4.56
BLISS Score (MiaPaca2 cells; MIA PaCa2, Pemi 333 nM + KRAS G12C i 0.15 nM, 5 day CTG): −12.96
BLISS Score (MiaPaca2 cells; MIA PaCa2, Pemi 333 nM + KRAS G12C i 0.46 nM, 5 day CTG): −5.77
BLISS Score (MiaPaca2 cells; MIA PaCa2, Pemi 333 nM + KRAS G12C i 1.37 nM, 5 day CTG): 11.10
BLISS Score (MiaPaca2 cells; MIA PaCa2, Pemi 333 nM + KRAS G12C i 4.12 nM, 5 day CTG): 7.47
BLISS Score (MiaPaca2 cells; MIA PaCa2, Pemi 333 nM + KRAS G12C i 12.35 nM, 5 day CTG): 3.76
BLISS Score (MiaPaca2 cells; MIA PaCa2, Pemi 333 nM + KRAS G12C i 37.04 nM, 5 day CTG): 6.27
BLISS Score (MiaPaca2 cells; MIA PaCa2, Pemi 333 nM + KRAS G12C i 111.11 nM, 5 day CTG): 4.88
BLISS Score (MiaPaca2 cells; MIA PaCa2, Pemi 333 nM + KRAS G12C i 333.33 nM, 5 day CTG): 3.97
BLISS Score (MiaPaca2 cells; MIA PaCa2, Pemi 333 nM + KRAS G12C i 1000.00 nM, 5 day CTG): 2.38
BLISS Score (MiaPaca2 cells; MIA PaCa2, Pemi 1000 nM + KRAS G12C i 0.15 nM, 5 day CTG): −10.95
BLISS Score (MiaPaca2 cells; MIA PaCa2, Pemi 1000 nM + KRAS G12C i 0.46 nM, 5 day CTG): −5.74
BLISS Score (MiaPaca2 cells; MIA PaCa2, Pemi 1000 nM + KRAS G12C i 1.37 nM, 5 day CTG): 3.46
BLISS Score (MiaPaca2 cells; MIA PaCa2, Pemi 1000 nM + KRAS G12C i 4.12 nM, 5 day CTG): 6.59
BLISS Score (MiaPaca2 cells; MIA PaCa2, Pemi 1000 nM + KRAS G12C i 12.35 nM, 5 day CTG): 2.84
BLISS Score (MiaPaca2 cells; MIA PaCa2, Pemi 1000 nM + KRAS G12C i 37.04 nM, 5 day CTG): 4.32
BLISS Score (MiaPaca2 cells; MIA PaCa2, Pemi 1000 nM + KRAS G12C i 111.11 nM, 5 day CTG): 4.62
BLISS Score (MiaPaca2 cells; MIA PaCa2, Pemi 1000 nM + KRAS G12C i 333.33 nM, 5 day CTG): 3.71
BLISS Score (MiaPaca2 cells; MIA PaCa2, Pemi 1000 nM + KRAS G12C i 1000.00 nM, 5 day CTG): 4.32
BLISS Score (MiaPaca2 cells; MIAPACA2, Average, G12C i 111 nM + Pemi 1 μM, 5-day CTG): 6.3
BLISS Score (MiaPaca2 cells; MIAPACA2, G12C i 111 nM + Pemi 1 μM, 5-day CTG, single experiments): 8.8 and 5.6 and 4.6
Avg. Bliss Score (LU-99; LU-99 (Lung, Mesenchymal), FGFR inhibitor in combination with Cmpd 3): 44.8
Avg. Bliss Score (LU-99; Lu99 (Lung, Mesenchymal), FGFR inhibitor in combination with MRTX849): 37.4
Avg. Bliss Score (SW-1573; SW1573 (Lung, Mesenchymal), FGFR inhibitor in combination with MRTX849): 29.5
Avg. Bliss Score (SW-1573; SW-1573 (Lung, Mesenchymal), FGFR inhibitor in combination with Cmpd 3): 19.3
